# Data: article PMC2764525 (Biochemistry, 2009)
# “And” between values parts separate entries of the source, which are not always exact repeats. Equal entries are not always repeated. Where two headings read alike, the source gives them in different places.
# Columns and labels:
# nikD Asp276Asn [1] = target: T1, nikD Asp276Asn (Streptomyces tendae, UniProt Q9X9P9, D276N); assay: biochemical; type: binding
# nikD Glu101Gln [2] = target: T2, nikD Glu101Gln (Streptomyces tendae, UniProt Q9X9P9, E101Q); assay: biochemical; type: binding
# wild-type nikD [3] = conditions: spectral titration, 100 mM potassium phosphate buffer, pH 8.0, 25 °C; cited from earlier work
# [4] = ionization at the N(3)H position in free FAD; cited from earlier work
# wild-type nikD [5] = conditions: saturating P2C and oxygen, pH 8.0, 25 °C; cited from earlier work
# wild-type nikD [6] = conditions: pH 8.0, 25 °C, cited from earlier work
# nikD Glu101Gln [7] = target: T2, nikD Glu101Gln; assay: Anaerobic reductive half-reaction with P2C; type: biochemical
# nikD Glu101Gln [8] = target: T2, nikD Glu101Gln; assay: Steady-state turnover with P2C and oxygen; type: biochemical
# nikD Asp276Asn [9] = target: T1, nikD Asp276Asn; assay: Anaerobic reductive half-reaction with P2C; type: biochemical
# nikD Asp276Asn [10] = target: T1, nikD Asp276Asn; assay: Steady-state turnover with P2C and oxygen; type: biochemical
# nikD Glu101Gln [11] = target: T2, nikD Glu101Gln; conditions: pH 8
# nikD Glu101Gln [12] = target: T2, nikD Glu101Gln; assay: biochemical
# wild-type nikD [13] = conditions: cited from earlier work
# [14] = apparent second-order rate constant from stopped-flow data, pH 8.0, 25 °C
# [15] = limiting rate of fast phase at saturating P2C, pH 8.0, 25 °C
# [16] = very fast phase preceding fast phase, pH 8.0, 25 °C
# [17] = saturating concentrations of P2C and oxygen
# [18] = one-step binding, pH 8.0, 25 °C
compound,measurement,setting,value
O=C(O)C1=CCCCC1 [1-cyclohexenoate],Kd,nikD Asp276Asn [1],6.5 ± 0.9 µM
same,Kd,nikD Glu101Gln [2],0.9 ± 0.1 µM
same,Kd,wild-type nikD [3],12.8 ± 0.9 µM
"Cc1cc2nc3c(=O)[nH]c(=O)nc-3n(C[C@H](O)[C@H](O)[C@H](O)COP(=O)(O)OP(=O)(O)OC[C@H]3O[C@@H](n4cnc5c(N)ncnc54)[C@H](O)[C@@H]3O)c2cc1C [FAD, flavin adenine dinucleotide]",pKa,[4],10.4
"O=C(O)C1=NCCCC1 [P2C, piperideine-2-carboxylate]",kcat,wild-type nikD [5],2.3 ± 0.2 s⁻¹
same,klim,wild-type nikD [6]; limiting rate of fast phase at saturating P2C,53 ± 1 s⁻¹
same,klim/Kd app,wild-type nikD [6],2.0 ± 0.2 × 10^5 M^-1 s^-1
same,Kd,"wild-type nikD [6]; read-out: Kd app, hyperbolic fit of fast phase",260 ± 20 µM
same,kslow,"wild-type nikD [6]; slow phase, independent of P2C concentration",2.7 ± 0.1 s⁻¹
same,Kd,nikD Glu101Gln [7],1.4 ± 0.2 mM
same,klim/Kd app,nikD Glu101Gln [7]; [14],9 ± 1 × 10^3 M^-1 s^-1
same,klim,nikD Glu101Gln [7]; [15],13.9 ± 0.9 s⁻¹
same,"klim, fold faster than observed turnover rate (kcat)",nikD Glu101Gln [7]; saturating P2C,about 30 fold
same,"klim, fold slower than limiting rate with wild-type nikD",nikD Glu101Gln [7]; saturating P2C,about 4 fold
same,"kvery fast, Y-intercept of linear dependence on P2C concentration",nikD Glu101Gln [7]; [16],10.1 ± 0.9 s⁻¹
same,"kvery fast, slope of linear dependence on P2C concentration",nikD Glu101Gln [7]; [16],8.8 ± 0.2 × 10^3 M^-1 s^-1
same,kcat,"nikD Glu101Gln [8]; saturating P2C and oxygen, ping-pong mechanism fit, pH 8.0, 25 °C",0.50 ± 0.01 s⁻¹
same,"turnover rate, fold slower than wild-type nikD",nikD Glu101Gln [8]; [17],about 5 fold
same,Kd,nikD Asp276Asn [9],110 ± 10 µM
same,klim/Kd app,nikD Asp276Asn [9]; [14],1.01 ± 0.01 × 10^5 M^-1 s^-1 and 1.01 ± 0.09 × 10^5 M^-1 s^-1
same,klim,nikD Asp276Asn [9]; [15],11.1 ± 0.2 s⁻¹
same,"klim, fold faster than observed turnover rate (kcat)",nikD Asp276Asn [9]; saturating P2C,about 10 fold
same,"klim, fold slower than limiting rate with wild-type nikD",nikD Asp276Asn [9]; saturating P2C,about 5 fold
same,kslow,"nikD Asp276Asn [9]; slow phase, independent of P2C concentration, pH 8.0, 25 °C",3.0 ± 0.3 s⁻¹
same,Ki,nikD Asp276Asn [10],8 µM
same,kcat,"nikD Asp276Asn [10]; saturating P2C and oxygen, sequential mechanism fit, pH 8.0, 25 °C",1.22 ± 0.04 s⁻¹
same,"turnover rate, fold slower than wild-type nikD",nikD Asp276Asn [10]; [17],about 2 fold
C[Se]CC(=O)O [methylselenoacetate],Kd,nikD Asp276Asn [1],1000 ± 30 µM
same,Kd,nikD Glu101Gln [2],112 ± 3 µM
same,Kd,wild-type nikD [3],1070 ± 40 µM
O=C(O)c1ccccn1 [picolinate],Kd,nikD Asp276Asn [1],420 ± 20 µM
same,k3,nikD Glu101Gln [11],192 ± 9 s⁻¹
same,k4,nikD Glu101Gln [11],27 ± 1 s⁻¹
same,Kd,nikD Glu101Gln [2],151 ± 2 µM
same,Kd,nikD Glu101Gln [12],180 ± 30 µM
same,Kd,wild-type nikD [3],290 ± 40 µM
same,k1,wild-type nikD [13]; [18],2.83 ± 0.04 × 10^4 M^-1 s^-1
same,k2,wild-type nikD [13]; [18],8.0 ± 0.7 s⁻¹
same,Kd,"wild-type nikD [13]; read-out: Kd macroscopic (calc), calculated, equals k2/k1, pH 8.0, 25 °C",280 ± 30 µM
